# Counter-ions that a name gives are not always drawn.
# Target: T1, human EP3 receptor (Homo sapiens, UniProt P43115)
# T1 construct: expressed in transfected cells; host or cells: CHO K1 (Chinese Hamster Ovary), stably co-transfected with Galpha16 and mitochondrial clytin
# T1 sequence (P43115 1-390): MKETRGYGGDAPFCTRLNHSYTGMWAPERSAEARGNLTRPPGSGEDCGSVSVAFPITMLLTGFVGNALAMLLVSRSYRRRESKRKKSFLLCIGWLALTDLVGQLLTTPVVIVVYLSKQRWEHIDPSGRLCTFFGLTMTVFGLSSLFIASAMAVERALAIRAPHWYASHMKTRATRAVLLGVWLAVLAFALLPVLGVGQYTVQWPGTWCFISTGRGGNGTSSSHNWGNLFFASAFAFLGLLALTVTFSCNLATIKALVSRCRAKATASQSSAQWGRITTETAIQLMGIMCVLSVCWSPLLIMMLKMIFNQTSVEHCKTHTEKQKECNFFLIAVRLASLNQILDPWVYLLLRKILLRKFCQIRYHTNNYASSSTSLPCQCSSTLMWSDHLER
# Test: Cellular in vitro assay for determining EP3 receptor activity (human EP3 cell line, sulprostone-stimulated calcium luminescence)
# Assay type: cell-based
# Settings: CHO cells expressing human EP3 and mitochondrial Clytin; antagonist mode, sulprostone at EC50; read-out: EP3 CHO mtCLY ANTAG IC50
# Procedure, shortened: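 Antagonist activity was measured as inhibition of the luminescent calcium signal elicited by EC50 sulprostone, following 10 min compound pretreatment. The cell line was recombinant CHO K1 co-expressing human EP3, Gα16 and the photoprotein Clytin, reconstituted with coelenterazine.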
row,IC50 [nM],Structure (SMILES)
1,3.35,CC(C)(O)[C@@H](NC(=O)c1nn2cc(-c3ccc(Cl)c(F)c3)[nH]c(=O)c2c1C1CC(F)(F)C1)c1ccc(F)cc1 [6-555]
2,9.55,"Cc1ccc(-c2cn3nc(C(=O)NC(CO)C(F)(F)F)c(C(F)(F)F)c3c(=O)[nH]2)cc1Cl (single isomer, unassigned) [6-162]"
3,1.16,"CC[C@@H](C)NC(=O)c1nn2cc(-c3ccc(C)c(C)c3)[nH]c(=O)c2c1C1CC1 [Example 1-142, N-[(2R)-Butan-2-yl]-3-cyclopropyl-6-(3,4-dimethylphenyl)-4-oxo-4,5-dihydropyrazolo[1,5-a]-pyrazine-2-carboxamide]"
4,3.9,"COc1ccc([C@H](CCO)NC(=O)c2nn3cc(-c4ccc5ccccc5c4)[nH]c(=O)c3c2C#N)cc1 [Example 3-63, 3-Cyano-N-[(1S)-3-hydroxy-1-(4-methoxyphenyl)propyl]-6-(naphthalen-2-yl)-4-oxo-4,5-dihydropyrazolo[1,5-a]pyrazine-2-carboxamide]"
5,4.18,"Cc1c(C(=O)NC2(c3ccc(F)cc3)CN(C)C2)nn2cc(-c3ccc4ccccc4c3)[nH]c(=O)c12 [Example 1-34, N-[3-(4-Fluorophenyl)-1-methylazetidin-3-yl]-3-methyl-6-(naphthalen-2-yl)-4-oxo-4,5-dihydropyrazolo[1,5-a]pyrazine-2-carboxamide formic acid salt]"
6,1.75,O=C(NC1(c2ccc(F)cc2)CC1)c1cc2c(=O)[nH]c(-c3ccc4ccccc4c3)cn2n1 [6-18]
7,0.76,"Cc1ccc(-c2cn3nc(C(=O)NCC(N)C(F)(F)F)c(C4CC4)c3c(=O)[nH]2)cc1C (single isomer, unassigned) [6-433]"
8,0.65,COC[C@H](NC(=O)c1nn2cc(-c3ccc(Cl)c(C)c3)[nH]c(=O)c2c1C1CC1)c1ccccc1 [6-304]
9,3.55,C[C@H](NC(=O)c1cc2c(=O)[nH]c(-c3ccc4c(c3)N(C)CCO4)cn2n1)c1ccc(F)cc1 [6-83]
10,5.55,"Cc1ccc(-c2cn3nc(C(=O)NCC(O)C(F)(F)F)c(C4CC4)c3c(=O)[nH]2)cc1C(F)(F)F (single isomer, unassigned) [6-244]"
11,0.89,"Cc1ccc(-c2cn3nc(C(=O)N[C@@H](c4ccc(F)cc4)C(C)(C)O)c(C)c3c(=O)[nH]2)cc1F [Example 1-162, 6-(3-Fluoro-4-methylphenyl)-N-[(1S)-1-(4-fluorophenyl)-2-hydroxy-2-methylpropyl]-3-methyl-4-oxo-4,5-dihydropyrazolo[1,5-a]pyrazine-2-carboxamide]"
12,5.45,CN(C)CC(NC(=O)c1nn2cc(-c3ccc4ccccc4c3)[nH]c(=O)c2c1C(F)(F)F)c1ccc(F)cc1 (racemic) [6-506]
13,4.2,CN1CC(NC(=O)c2nn3cc(-c4ccc5c(c4)OCCO5)[nH]c(=O)c3c2C(F)(F)F)(c2ccc(F)cc2)C1 [6-535]
14,8.75,"Cn1cc(CNC(=O)c2nn3cc(-c4ccc5ccccc5c4)[nH]c(=O)c3c2C#N)cn1 [Example 3-45, 3-Cyano-N-[(1-methyl-1H-pyrazol-4-yl)methyl]-6-(naphthalen-2-yl)-4-oxo-4,5-dihydropyrazolo[1,5-a]pyrazine-2-carboxamide]"
15,4.4,"Cc1cc(-c2cn3nc(C(=O)NC(C)C4CCC4)c(C4CC4)c3c(=O)[nH]2)ccc1Cl (single isomer, unassigned) [6-299]"
16,1.43,Cc1ccc(-c2cn3nc(C(=O)N[C@@H](c4ccc(F)cc4)C(F)(F)CO)c(C)c3c(=O)[nH]2)cc1F [6-412]
17,1.95,"CC[C@@H](C)NC(=O)c1nn2cc(-c3ccc(C)c(C)c3)[nH]c(=O)c2c1C(C)C [Example 1-140, N-[(2R)-Butan-2-yl]-6-(3,4-dimethylphenyl)-4-oxo-3-(propan-2-yl)-4,5-dihydropyrazolo[1,5-a]-pyrazine-2-carboxamide]"
18,2.5,O=C(N[C@@H](c1ccc(F)cc1)C(F)(F)CO)c1nn2cc(-c3ccc(Cl)c(Cl)c3)[nH]c(=O)c2c1C1CCC1 [6-567]
19,2.55,"Cc1cc(-c2cn3nc(C(=O)NC(CO)C(F)(F)F)c(C4CC4)c3c(=O)[nH]2)ccc1Cl (single isomer, unassigned) [6-308]"
